Results published in PubChem BioAssay (NCI).
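The concentration for 50% growth inhibition is given as GI50. TGI: total growth inhibition.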

What was measured:
Test in all cases: growth of human tumour cells (NCI), 384-well format
SF-268 CNS = tested on: SF-268 CNS
OVCAR-4 ovarian = tested on: OVCAR-4 ovarian
NCI-H23 lung = tested on: NCI-H23 lung
OVCAR-5 ovarian = tested on: OVCAR-5 ovarian
SK-MEL-5 melanoma = tested on: SK-MEL-5 melanoma
DU-145 prostate = tested on: DU-145 prostate
COLO 205 colon = tested on: COLO 205 colon
HL-60(TB) leukemia = tested on: HL-60(TB) leukemia
RXF 393 renal = tested on: RXF 393 renal
HCC-2998 colon = tested on: HCC-2998 colon
SK-OV-3 ovarian = tested on: SK-OV-3 ovarian
HCT-116 colon = tested on: HCT-116 colon
BT-549 breast = tested on: BT-549 breast
HT29 colon = tested on: HT29 colon
HOP-92 NSCLC = tested on: HOP-92 NSCLC
786-0 renal = tested on: 786-0 renal
CCRF-CEM leukemia = tested on: CCRF-CEM leukemia
CAKI-1 renal = tested on: CAKI-1 renal
T-47D breast = tested on: T-47D breast
OVCAR-8 ovarian = tested on: OVCAR-8 ovarian
IGROV1 ovarian = tested on: IGROV1 ovarian
OVCAR-3 ovarian = tested on: OVCAR-3 ovarian
UO-31 renal = tested on: UO-31 renal
NCI-H322M lung = tested on: NCI-H322M lung
RPMI-8226 leukemia = tested on: RPMI-8226 leukemia
NCI-H460 NSCLC = tested on: NCI-H460 NSCLC
HCT-15 colon = tested on: HCT-15 colon
NCI-H522 lung = tested on: NCI-H522 lung
PC-3 prostate = tested on: PC-3 prostate
NCI-H226 lung = tested on: NCI-H226 lung
SK-MEL-2 melanoma = tested on: SK-MEL-2 melanoma
MOLT-4 leukemia = tested on: MOLT-4 leukemia
MDA-MB-468 breast = tested on: MDA-MB-468 breast
NCI/ADR-RES ovarian = tested on: NCI/ADR-RES ovarian
SW-620 colon = tested on: SW-620 colon
SN12C renal = tested on: SN12C renal
HOP-62 NSCLC = tested on: HOP-62 NSCLC
KM12 colon = tested on: KM12 colon
MALME-3M melanoma = tested on: MALME-3M melanoma
MCF7 breast = tested on: MCF7 breast
LOX IMVI melanoma = tested on: LOX IMVI melanoma
A498 renal = tested on: A498 renal
MDA-MB-435 melanoma = tested on: MDA-MB-435 melanoma
K-562 leukemia = tested on: K-562 leukemia
SR leukemia = tested on: SR leukemia
ACHN renal = tested on: ACHN renal
SK-MEL-28 melanoma = tested on: SK-MEL-28 melanoma
SNB-19 CNS = tested on: SNB-19 CNS
UACC-257 melanoma = tested on: UACC-257 melanoma
UACC-62 melanoma = tested on: UACC-62 melanoma
MDA-MB-231 breast = tested on: MDA-MB-231 breast
M14 melanoma = tested on: M14 melanoma
U251 glioblastoma = tested on: U251 glioblastoma
A549 NSCLC = tested on: A549 NSCLC
SF-295 CNS = tested on: SF-295 CNS
TK-10 renal = tested on: TK-10 renal
SF-539 CNS = tested on: SF-539 CNS

`COc1cc2c(Oc3ccc(NC(=O)C4(C(=O)Nc5ccc(F)cc5)CC4)cc3F)ccnc2cc1OCCCN1CCOCC1` showed a GI50 (SF-268 CNS) of 0.781 µM, a TGI (SF-268 CNS) of 2.02 µM and a GI50 (OVCAR-4 ovarian) of 0.409 µM. For the same molecule, the TGI (OVCAR-4 ovarian) was 1.77 µM, the GI50 (NCI-H23 lung) was 0.0463 µM and the TGI (NCI-H23 lung) was 0.642 µM. The GI50 (OVCAR-5 ovarian) was 0.911 µM, the TGI (OVCAR-5 ovarian) was 2.12 µM and the GI50 (SK-MEL-5 melanoma) was 0.333 µM. It also gave a TGI (SK-MEL-5 melanoma) of 1.46 µM, a GI50 (DU-145 prostate) of 1.16 µM and a TGI (DU-145 prostate) of 2.39 µM. It also gave a GI50 (COLO 205 colon) of 0.211 µM, a TGI (COLO 205 colon) of 0.46 µM and a GI50 (HL-60(TB) leukemia) of 0.194 µM. For the same molecule, the TGI (HL-60(TB) leukemia) was 0.387 µM, the GI50 (RXF 393 renal) was 0.158 µM and the TGI (RXF 393 renal) was 0.548 µM. The GI50 (HCC-2998 colon) was 1.11 µM, the TGI (HCC-2998 colon) was 2.32 µM and the GI50 (SK-OV-3 ovarian) was 0.522 µM. The TGI (SK-OV-3 ovarian) was 1.79 µM, the GI50 (HCT-116 colon) was 0.379 µM and the TGI (HCT-116 colon) was 1.57 µM. The GI50 (BT-549 breast) was 0.44 µM, the TGI (BT-549 breast) was 1.51 µM and the GI50 (HT29 colon) was 0.324 µM. For the same molecule, the TGI (HT29 colon) was 1.22 µM, the GI50 (HOP-92 NSCLC) was 0.107 µM and the TGI (HOP-92 NSCLC) was 0.421 µM. The GI50 ([…]-0 renal) was 1.19 µM, the TGI (786-0 renal) was 2.42 µM and the GI50 (CCRF-CEM leukemia) was 0.0528 µM. The TGI (CCRF-CEM leukemia) was 0.189 µM, the GI50 (CAKI-1 renal) was 0.183 µM and the TGI (CAKI-1 renal) was 0.584 µM. For the same molecule, the GI50 (T-47D breast) was 1.05 µM, the TGI (T-47D breast) was 2.23 µM and the GI50 (OVCAR-8 ovarian) was 1.19 µM. For the same molecule, the TGI (OVCAR-8 ovarian) was 2.43 µM, the GI50 (IGROV1 ovarian) was 0.275 µM and the TGI (IGROV1 ovarian) was 0.99 µM. For the same molecule, the GI50 (OVCAR-3 ovarian) was 0.554 µM, the TGI (OVCAR-3 ovarian) was 1.78 µM and the GI50 (UO-31 renal) was 0.314 µM. For the same molecule, the TGI (UO-31 renal) was 1.11 µM, the GI50 (NCI-H322M lung) was 0.866 µM and the TGI (NCI-H322M lung) was 2.1 µM. For the same molecule, the GI50 (RPMI-8226 leukemia) was 0.202 µM, the TGI (RPMI-8226 leukemia) was 0.492 µM and the GI50 (NCI-H460 NSCLC) was 0.219 µM. The TGI (NCI-H460 NSCLC) was 1.13 µM, the GI50 (HCT-15 colon) was 0.419 µM and the TGI (HCT-15 colon) was 1.59 µM. For the same molecule, the GI50 (NCI-H522 lung) was 0.211 µM, the TGI (NCI-H522 lung) was 0.817 µM and the GI50 (PC-3 prostate) was 1.3 µM. For the same molecule, the TGI (PC-3 prostate) was 2.58 µM, the GI50 (NCI-H226 lung) was 0.276 µM and the TGI (NCI-H226 lung) was 0.966 µM. For the same molecule, the GI50 (SK-MEL-2 melanoma) was 0.3 µM, the TGI (SK-MEL-2 melanoma) was 1.24 µM and the GI50 (MOLT-4 leukemia) was 0.0425 µM. The TGI (MOLT-4 leukemia) was 0.137 µM, the GI50 (MDA-MB-468 breast) was 0.27 µM and the TGI (MDA-MB-468 breast) was 0.547 µM. It also gave a GI50 (NCI/ADR-RES ovarian) of 0.436 µM, a TGI (NCI/ADR-RES ovarian) of 1.6 µM and a GI50 (SW-620 colon) of 0.201 µM. The TGI (SW-620 colon) was 0.747 µM, the GI50 (SN12C renal) was 0.175 µM and the TGI (SN12C renal) was 1.06 µM. It also gave a GI50 (HOP-62 NSCLC) of 0.668 µM, a TGI (HOP-62 NSCLC) of 1.93 µM and a TGI (KM12 colon) of 0.931 µM. The GI50 (MALME-3M melanoma) was 0.185 µM, the TGI (MALME-3M melanoma) was 0.541 µM and the GI50 (MCF7 breast) was 0.331 µM. The TGI (MCF7 breast) was 1.44 µM, the GI50 (LOX IMVI melanoma) was 0.386 µM and the TGI (LOX IMVI melanoma) was 0.945 µM. It also gave a GI50 (A498 renal) of 0.838 µM, a TGI (A498 renal) of 2.08 µM and a GI50 (MDA-MB-435 melanoma) of 0.331 µM. For the same molecule, the TGI (MDA-MB-435 melanoma) was 1.2 µM, the GI50 (K-562 leukemia) was 0.0403 µM and the TGI (K-562 leukemia) was 0.143 µM. The GI50 (SR leukemia) was 0.131 µM, the TGI (SR leukemia) was 0.261 µM and the GI50 (ACHN renal) was 0.205 µM. For the same molecule, the TGI (ACHN renal) was 0.718 µM, the GI50 (SK-MEL-28 melanoma) was 0.361 µM and the TGI (SK-MEL-28 melanoma) was 1.43 µM. For the same molecule, the GI50 (SNB-19 CNS) was 1.18 µM, the TGI (SNB-19 CNS) was 2.41 µM and the GI50 (UACC-257 melanoma) was 0.265 µM. For the same molecule, the TGI (UACC-257 melanoma) was 0.859 µM, the GI50 (UACC-62 melanoma) was 0.369 µM and the TGI (UACC-62 melanoma) was 1.55 µM. The GI50 (MDA-MB-231 breast) was 0.361 µM, the TGI (MDA-MB-231 breast) was 1.66 µM and the GI50 (M14 melanoma) was 0.293 µM. It also gave a TGI (M14 melanoma) of 0.882 µM, a GI50 (U251 glioblastoma) of 1.14 µM and a TGI (U251 glioblastoma) of 2.36 µM. For the same molecule, the GI50 (A549 NSCLC) was 0.329 µM, the TGI (A549 NSCLC) was 1.17 µM and the GI50 (SF-295 CNS) was 0.094 µM. The TGI (SF-295 CNS) was 1.51 µM, the GI50 (TK-10 renal) was 0.648 µM and the TGI (TK-10 renal) was 1.91 µM. The GI50 (SF-539 CNS) was 0.135 µM and the TGI (SF-539 CNS) was 0.489 µM.
